Experimental data taken from US20050132448A1, “Assay for beta cell toxic macrolides” (priority 2001, published 2005).

Assays:
P-ATPase = conditions: 275 nM; cited from earlier work
vATPase = target: T1, vATPase (Mus musculus, UniProt P63082); assay: V-ATPase activity assay on kidney homogenates of bafilomycin A1 treated mice; assay type: in vivo; conditions: for Bafilomycin A1 sensitive ATPase activity ± SD / total ATPase activity ± SD: kidney homogenate; for reduction of bafilomycin A1 sensitive ATPase activity: vs control
T1 construct: from tissue; host or cells: kidney of male Balb/c mice (crude homogenate, 700 x g supernatant)
Experimental: (§1) Male Balb/c mice were provided by the Monash University Central Animal House and Breeding Facility. The Monash University Department of Biochemistry Animal Ethics Committee approved all animal experimentation. Bafilomycin A1 (Sigma) was dissolved in 70% ethanol then diluted 1 in 10 with sterile phosphate buffered saline (PBS) to give a working stock of 4.8 μg/ml. Groups of between 3 and 9 mice as indicated were administered 12 μg per kilogram (body weight) bafilomycin A1 by intraperitoneal injection, which should achieve a final concentration in the blood of 275 nM bafilomycin A1 assuming a blood volume of 70 ml per kg for mice. […] Control mice received the ethanol/PBS carrier solution that lacked the inhibitor.
Seven control mice, 4 mice treated 1 day previously and 4 mice treated 7 days previously with bafilomycin A1 were anaesthetised with 35 mg per kg body weight pentobarbitone (Nembutal) and the kidneys removed and immediately frozen on dry ice and stored at −80° C. until processed. The kidneys were weighed then homogenised in liquid nitrogen using a mortar and pestle. 1 ml of 10 mM Tris-Cl pH 8.0 and 2 mM Mg2Cl containing protease inhibitors was then added and the tissue was further homogenised with 5 strokes of a dounce homogeniser. One ml of 0.5 M sucrose, 40 mM Tris-Cl pH 8, 2 mM Mg2Cl was then added to the homogenate and the suspension was clarified by centrifugation at 700×g for 10 minutes at 4° C. Supernatents containing soluble and membrane bound components were then assayed in duplicate for ATPase activity by incubating 100 μl of a 1:100 dilution of the tissue extract with 1 mM ATP in Tris buffered saline (TBS) for 30 minutes in the well of a microtitre plate in the presence or absence of 15 μl of a 1 μM solution of bafilomycin A1 in a final reaction volume of 200 μl. The inorganic phosphate released was measured using the one-step method of Chan et al., (1986), and absorbances were read in a microtitre plate reader at a wavelength of 660 nm. Results were corrected for background phosphate concentration and ATP autohydrolysis. The protein content of each kidney extract was determined using the Bradford reagent (Biorad).

Balb/c mice [1] = assay: Plasma immunoreactive insulin (radioimmunoassay); assay type: in vivo; conditions: 7 days after treatment
Experimental: as §1
Groups of 9 mice were treated with bafilomycin A1 or carrier solution then fasted, anaesthetised with penotobarbitone and challenged with glucose as described for the OGTT. Blood samples for insulin assay were collected from the orbital plexus from fasted mice or from mice 15 minutes after glucose challenge using 4×75 μl haematocrit tubes for each bleed. Serum samples were diluted 1 in 5 or 1 in 20 then assayed in duplicate for insulin content using a Linco sensitive rat insulin radioimmunoassay kit. […] Insulin content was determined by sensitive rat insulin RIA using a 1 in 1,000 dilution of the homogenates.

Balb/c mice [2] = assay: Pancreatic immunoreactive insulin content by RIA on pancreas homogenates; assay type: in vivo; conditions: treated 14 days previously, 15 minutes after glucose challenge
Experimental: Groups of 9 mice were treated with bafilomycin A1 or carrier solution then fasted, anaesthetised with penotobarbitone and challenged with glucose as described for the OGTT. Blood samples for insulin assay were collected from the orbital plexus from fasted mice or from mice 15 minutes after glucose challenge using 4×75 μl haematocrit tubes for each bleed. Serum samples were diluted 1 in 5 or 1 in 20 then assayed in duplicate for insulin content using a Linco sensitive rat insulin radioimmunoassay kit. Pancreata from the mice that were bled 15 minutes after glucose challenge were dissected and frozen on dry ice. The frozen pancreata were homogenised in 2 ml of PBS containing 1 mg/ml BSA per gram of pancreas by 10 strokes in a dounce homogeniser. The slurry was sonicated using 3×10 second bursts and then centrifuged at 12,000×g for 60 minutes. The supernatants were stored at −20° C. Insulin content was determined by sensitive rat insulin RIA using a 1 in 1,000 dilution of the homogenates.
Pancreatic immunoreactive insulin content was determined directly by RIA on homogenates of pancreas. Mice treated 14 days previously were fasted and then challenged with glucose 15 minutes prior to removal of the pancreas. […]

NOD/lt mice = assay: Acceleration of diabetes onset in NOD mice; assay type: in vivo; conditions: 12 ng per gram i.p. on 5 consecutive days, 11-week-old female mice
Experimental: The NOD mouse develops spontaneous diabetes due to an autoimmune mediated destruction of the pancreatic islet β-cells. The characteristics of diabetes development in the NOD mouse parallel those in humans, making the NOD mouse a useful model of human Type 1 diabetes. Lymphocytic infiltrates in the pancreatic islets, termed insulitis, first develops in NOD mice soon after weaning at 4 weeks of age and hyperglycaemia first appears from 18 to 32 weeks of age. Bafilomycin A1 was administered to NOD mice to test whether the onset of hyperglycaemia was accelerated.
Eleven-week-old female NOD/lt mice were injected intraperitoneally with either 12 ng per gram body weight of bafilomycin A1 (10 mice) or phosphate buffered saline carrier solution (10 mice) on each of 5 consecutive days. Blood glucose was monitored weekly and diabetes defined as a blood glucose measurement greater than 11 mmol/L.

T1 sequence (Q91V37 whole entry): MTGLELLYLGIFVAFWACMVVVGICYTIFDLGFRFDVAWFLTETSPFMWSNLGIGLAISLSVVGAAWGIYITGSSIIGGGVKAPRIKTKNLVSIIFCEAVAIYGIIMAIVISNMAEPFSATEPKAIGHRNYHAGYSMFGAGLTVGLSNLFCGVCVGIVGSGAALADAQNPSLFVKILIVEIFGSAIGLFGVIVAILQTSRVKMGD
T1 sequence (P63082 whole entry): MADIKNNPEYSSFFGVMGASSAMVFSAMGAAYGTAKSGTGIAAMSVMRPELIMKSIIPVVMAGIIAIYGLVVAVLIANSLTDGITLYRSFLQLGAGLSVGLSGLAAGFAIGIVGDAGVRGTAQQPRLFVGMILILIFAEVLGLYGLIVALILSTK

## CO/C1=C\C(C)=C\[C@@H](C)[C@@H](O)[C@@H](C)C/C(C)=C/C=C/[C@H](OC)[C@@H]([C@@H](C)[C@@H](O)[C@H](C)[C@@]2(O)C[C@@H](O)[C@H](C)[C@@H](C(C)C)O2)OC1=O [bafilomycin A1]
P-ATPase
  inhibition of P-ATPase activity: no detectable inhibition
vATPase; 1 day after treatment
  kidney % of animal weight ± SD: 0.90 ± 0.11%
vATPase; 1 day and 7 days after treatment
  weight or protein contents of the kidneys, treated vs control: no significant differences
vATPase; 7 day after treatment
  kidney % of animal weight ± SD: 0.90 ± 0.15%
vATPase; 1 day after 12 μg/kg i.p.
  Bafilomycin A1 sensitive ATPase activity ± SD: 0.80 ± 0.30 Nmol/min/mg protein
  total ATPase activity ± SD: 4.4 ± 0.5 Nmol/min/mg protein
vATPase; 7 day after 12 μg/kg i.p.
  Bafilomycin A1 sensitive ATPase activity ± SD: 0.80 ± 0.30 Nmol/min/mg protein
  total ATPase activity ± SD: 4.8 ± 0.8 Nmol/min/mg protein
vATPase; kidney, 1 day after treatment
  reduction of bafilomycin A1 sensitive ATPase activity: 50%
vATPase; kidney, 1 day and 7 days after treatment
  reduction of bafilomycin A1 insensitive ATPase activity: not in bafilomycin A1 insensitive ATPase activity
vATPase; kidney, 7 days after treatment
  reduction of bafilomycin A1 sensitive ATPase activity: 50%
Balb/c mice [1]
  plasma insulin level fifteen minutes after glucose challenge: 15±10
Balb/c mice [1]; fasting
  fasting plasma immunoreactive insulin level: 1.2±0.8
Balb/c mice [2]
  more pancreatic immunoreactive insulin than controls: 70%
  pancreatic immunoreactive insulin content (median): 565 μg IRI per gram of pancreas
NOD/lt mice
  onset of islet beta cell destruction and hyperglycaemia: slight acceleration
